Source: patent publication US11485728B2, “Small molecules for the treatment of autoimmune diseases and cancer” (Athos Therapeutics, Inc., priority 2020, dated 2022)

Experiments:
[1] = system: C57BL/6 mice with DSS colitis; assay: DSS colitis in C57BL/6 mice; format: in vivo; conditions: for Clinical Score: includes weight, bleeding, diarrhea, rectal prolapse; for protection against colitis induced weight loss / colitis-induced weight loss / colon length shortening: daily oral gavage; for protection against colitis induced weight loss: after d11; for colitis-induced weight loss / colon length shortening: d12; as to Clinical Score: key: −: indicates no statistically significant effect in the variable measured when compared with the control group; +: indicates a statistically significant difference in the variable measured when compared with the control group; ++: indicates measurements that include multiple variables in the calculation of their differences when compared with the control group, and represents the presence of significant changes across all variable measurements
Method: Dextran sodium sulfate (DSS) was added to the water 24 hrs after compound administration and weight was measured daily.
C57BL/6 mice (20-22 grams) were fed ad lib and assigned to 4 different groups (n=8/group). […] A control group received vehicle alone. After 24 hrs, mice were weighed and DSS was added to their drinking water. Mice were then treated with the test compounds and weighed daily and the DSS water was replenished every 72 hrs for 5 days, at which point, it was replaced by regular drinking water. Mice were sacrificed on day twelve and clinical scored was assessed. Intestinal tissue for and blood were also collected. Tissues were either flash frozen and kept in −80° C. for RNA and protein isolation or placed in 10% formalin solution for future histological analysis. Blood was spun at 5K rpm for 5 min and serum was collected and kept at −20° C. for multiplex cytokine analysis.
DSS colitis mouse model: C57BL/6 mice (20-22 grains) are fed ad lib and assigned to different groups (n=8/group). […] A control group receives vehicle alone. After 24 h, mice are weighed and DSS is added to their drinking water. Mice are then treated with the test compounds and weighed daily and the DSS water is replenished every 72 liars for 5 days, at which point, it is replaced by regular drinking water. Mice are sacrificed on day twelve and clinical scored was assessed. Intestinal tissue for and blood are also collected. Tissues are either flash frozen and kept in −80° C. for RNA and protein isolation or placed in 10% formalin solution for future histological analysis.

[2] = Formulation visual stability (DMA/PG/PEG 300/water); format: physicochemical; conditions: 25° C., 10-11 mg/mL in DMA/PG/PEG 300/Water
Method: All formulations were conducted with FDA approved excipients and with high purity material such as USP grade quality. Formulation stability of test articles are performed using HPLC purity method described within analytical section. This formula may be used for oral administration of the compounds described herein; […]. Since these compounds have high solubility in lower pH as described in the solubility study section, the intervenous delivery is performed with 100% phosphate buffer solution of pH 6.5 allowing up to 7 mg/mL concentration. The formulated test articles can be store at 4° C. Prior to dosing, it should be warmed and vortexed for about 1 min to make a homogenous solution. If needed, filter through 0.2 μM syringe filter to maintain clean and sterile.

5637 = 5637 bladder cancer cell viability (Real-Time-Glo); format: cell-based; conditions: 72 hr; read-out: IC50, Cell line: 5637
Method: (§1) To determine the plating density for cell viability assays, for each cell line, cells were counted and diluted to final densities of 2.5, 5, 10 and 20 thousand per 100 μl of their respective growth media per well in 96 well plates. A Promega Real-Time-Glo cell viability kit was used to determine the optimal concentration for cell plating so that each cell line would be within the linear part of its growth curve after 72 hrs in culture. For the determination of test compound IC50s different cancer cell lines were plated in 96 well plates in the pre-determined optimal density for each cell line. Test compounds were then added at different concentrations for the creation of six-point curve and cell density was determined using the Promega Real-Time-Glo cell viability kit after 24, 48, and 72 hrs in culture. Test compound 72 hr IC50s were calculated using the AAT Bioquest IC50 calculator.
The following compounds are evaluated for their ability to block cancer cell growth in colon (HT-29), liver (HepG2), pancreatic (MiaPaca-2) and bladder (5637) cancer cell lines. Specifically, the Promega Real-Time-Glo cell viability kit was used to determine the optimal concentration for cell plating so that each cell line would be within the linear part of its growth curve after 72 hrs in culture. For the determination of test compound IC50s different cancer cell lines are plated in 96 well plates in the pre-determined optimal density for each cell line. Test compounds are then added at different concentrations for the creation of six-point curve and cell density is determined using the Promega Real-Time-Glo cell viability kit after 24, 48, and 72 hrs in culture. Test compound 72 hr IC50s is calculated using the AAT Bioquest IC50 calculator.

HCT-116 = HCT-116 cell viability (Real-Time-Glo); format: cell-based; conditions: Homo sapiens, 72 hr, read-out: IC50, Cell line: HCT-116
Method: as §1, with “For the determination of test compound IC50s different cancer cell lines were plated in 96 well plates in the pre-determined optimal density for each cell line.” left out, “culture.” for “culture. Test compound 72 hr IC50s were calculated using the AAT Bioquest IC50 calculator.”

A-498 = A-498 kidney cancer cell viability (Real-Time-Glo); format: cell-based; conditions: Homo sapiens, A498; 72 hr; read-out: IC50, Cell line: A-498
Method: as §1

[3] = 25 mg/kg PO daily, sacrificed day twelve
[4] = 50 mg/kg daily oral, d12 after DSS induction, vs vehicle

Row | IC50 5637 [µM] | IC50 (HCT-116) [nM] | IC50 (A-498) [µM] | SMILES | effect on the effects of DSS colitis (in words) ([1]; 25 mg/kg PO daily) | Colon Length ([1]; 25 mg/kg PO daily, day twelve) | Clinical Score ([1]; 25 mg/kg PO daily, day twelve) | DSS Efficacy [1, 3] | also measured
1 | 10 to 20 | 1000 to 5000 |  | COCCNc1nc(N2CCC(F)(F)CC2)nc2cc(OCCCN3CCCC3)c(OC)cc12 [Compound 4, 2-(4,4-difluoropiperidin-1-yl)-6-methoxy-N-(2-methoxyethyl)-7-(3-(pyrrolidin-1-yl)propoxy)quinazolin-4-amine] |  |  |  |  | 
2 | 5 to 10 | 1000 to 5000 | 5 to 10 | COc1cc2c(NC3CCN(C(C)C)CC3)nc(C#N)nc2cc1OCCCN1CCCC1 [Compound 235, 4-((1-isopropylpiperidin-4-yl)amino)-6-methoxy-7-(3-(pyrrolidin-1-yl)propoxy)quinazoline-2-carbonitrile] |  |  |  |  | 
3 | 1 to 5 | 1000 to 5000 | 1 to 5 | COc1cc2c(Nc3ccncc3)nc(N3CCC(F)(F)CC3)nc2cc1OCCCN1CCCC1 [Compound 7, 2-(4,4-difluoropiperidin-1-yl)-6-methoxy-N-(pyridin-4-yl)-7-(3-(pyrrolidin-1-yl)propoxy)quinazolin-4-amine] |  |  |  |  | DSS Efficacy ([1]; 25 mg/kg PO daily, day twelve): −
4 | 5 to 10 | 1000 to 5000 | 5 to 10 | COCCN1CCC(Nc2nc(N3CCC(F)(F)CC3)nc3cc(OCCCN4CCCC4)c(OC)cc23)CC1 [Compound 3, 2-(4,4-difluoropiperidin-1-yl)-6-methoxy-N-(1-(2-methoxyethyl)piperidin-4-yl)-7-(3-(pyrrolidin-1-yl)propoxy)quinazolin-4-amine] |  |  |  |  | 
5 | 5 to 10 | 1000 to 5000 | 5 to 10 | COc1cc2c(NC3CCN(C(C)C)CC3)nc(N3CCC3)nc2cc1OCCCN1CCCC1 [Compound 234, 2-(azetidin-1-yl)-N-(1-isopropylpiperidin-4-yl)-6-methoxy-7-(3-(pyrrolidin-1-yl)propoxy)quinazolin-4-amine] |  |  |  |  | 
6 | 5 to 10 | 1000 to 5000 |  | COc1cc2c(NC3CCOCC3)nc(N3CCCC3)nc2cc1OCCCN1CCCC1 [Compound 164, 6-methoxy-2-(pyrrolidin-1-yl)-7-(3-(pyrrolidin-1-yl)propoxy)-N-(tetrahydro-2H-pyran-4-yl)quinazolin-4-amine] |  |  |  |  | DSS Efficacy ([1]; 25 mg/kg PO daily, day twelve): ++
7 | 10 to 20 | 1000 to 5000 |  | COc1cc2c(NC3CCOCC3)nc(N3CCC3)nc2cc1OCCCN1CCCC1 [Compound 174, 2-(azetidin-1-yl)-6-methoxy-7-(3-(pyrrolidin-1-yl)propoxy)-N-(tetrahydro-2H-pyran-4-yl)quinazolin-4-amine] |  |  |  |  | 

The remaining lines, values behind:

Row | SMILES | IC50 5637 [µM] | IC50 (HCT-116) [nM] | IC50 (A-498) [µM] | effect on the effects of DSS colitis (in words) ([1]; 25 mg/kg PO daily) | Colon Length ([1]; 25 mg/kg PO daily, day twelve) | Clinical Score ([1]; 25 mg/kg PO daily, day twelve) | DSS Efficacy [1, 3] | also measured
8 | COc1cc2c(NC3CCOCC3)nc(N3CCC(F)(F)CC3)nc2cc1OCCCN1CCCC1 [Compound 2, 2-(4,4-difluoropiperidin-1-yl)-6-methoxy-7-(3-(pyrrolidin-1-yl)propoxy)-N-(tetrahydro-2H-pyran-4-yl)quinazolin-4-amine] | 10 to 20 |  |  | alleviation of the effects of DSS colitis | ++ | ++ | ++ | effect on overall efficacy, clinical score and colon length (in words) ([1]; 25 mg/kg PO daily): very strong effect; protection against colitis induced weight loss [1]: significant protection against colitis induced weight loss; colitis-induced weight loss ([1]; vs vehicle): significantly prevented; colon length shortening ([1]; vs vehicle): significantly prevented; Appearance ([2]; 30 min): clear; Appearance ([2]; 1 h): clear; Appearance ([2]; 5 h): clear; Appearance ([2]; 24 h): clear; Appearance ([2]; 7 d): clear
9 | COc1cc2c(NC3CCN(C(C)C)CC3)nc(-n3ccnc3)nc2cc1OCCCN1CCCC1 [Compound 156, 2-(1H-imidazol-1-yl)-N-(1-isopropylpiperidin-4-yl)-6-methoxy-7-(3-(pyrrolidin-1-yl)propoxy)quinazolin-4-amine] | 1 to 5 | 1000 to 5000 | 5 to 10 |  |  |  |  | 
10 | COc1cc2c(NC3CCN(C(C)C)CC3)nc(N3CCC(F)(F)CC3)nc2cc1OCCCN1CCCC1 [Compound 400, 2-(4,4-difluoropiperidin-1-yl)-N-(1-isopropylpiperidin-4-yl)-6-methoxy-7-(3-(pyrrolidin-1-yl)propoxy)quinazolin-4-amine, reference compound] |  |  | 10 to 20 | no effect | − | − | − | DSS-induced weight loss ([1]; 50 mg/kg daily oral): failed to increase DSS-induced weight loss; Colon Length [1, 4]: not; Appearance ([2]; 30 min): clear; Appearance ([2]; 1 h): clear; Appearance ([2]; 5 h): clear; Appearance ([2]; 24 h): clear; Appearance ([2]; 7 d): clear
11 | COc1cc2c(NCC3CCN(C)CC3)nc(N3CCC(F)(F)CC3)nc2cc1OCCCN1CCCC1 [Compound 5, 2-(4,4-difluoropiperidin-1-yl)-6-methoxy-N-((1-methylpiperidin-4-yl)methyl)-7-(3-(pyrrolidin-1-yl)propoxy)quinazolin-4-amine] |  |  |  | alleviation of the effects of DSS colitis | + | + | + | 
12 | COc1cc2c(NC3CCS(=O)(=O)CC3)nc(N3CCC(F)(F)CC3)nc2cc1OCCCN1CCCC1 [Compound 1, 4-((2-(4,4-difluoropiperidin-1-yl)-6-methoxy-7-(3-(pyrrolidin-1-yl)propoxy)quinazolin-4-yl)amino)tetrahydro-2H-thiopyran 1,1-dioxide] |  |  |  | alleviation of the effects of DSS colitis | + | + | + | DSS-induced weight loss ([1]; 50 mg/kg daily oral): resulted in increased weight; Colon Length [1, 4]: increased; protection against colitis induced weight loss [1]: significant protection against colitis induced weight loss; colitis-induced weight loss ([1]; vs vehicle): significantly prevented; colon length shortening ([1]; vs vehicle): significantly prevented; Appearance ([2]; 30 min): clear; Appearance ([2]; 1 h): clear; Appearance ([2]; 5 h): clear; Appearance ([2]; 24 h): clear; Appearance ([2]; 7 d): clear
